Patent publication US20230265059A1, “SOLID STATE FORMS OF 6-CARBOXY-2-(3, 5-DICHLOROPHENYL)-BENZOXAZOLE OF FORMULA-I AND PHARMACEUTICALLY ACCEPTABLE SALTS THEREOF” (NURAY CHEMICALS PRIVATE LIMITED, priority 2020, published 2023)

Test: Drying of the hydrate form to remove water
Format: physicochemical
Conditions: hydrate form having moisture content about 6.64%; drying at 55° C. temperature for 24 hours
Text: The hydrate form of 6-carboxy-2-(3,5-dichlorophenyl)-benzoxazole meglumine of Formula-IA according to the present disclosure having moisture content in the range of about 3.5% to about 9% preferably about 5 to 7%. The hydrate form of 6-carboxy-2-(3,5-dichlorophenyl)-benzoxazole meglumine salt of Formula-IA having moisture up to 15 to 20% but the only 5 to 7% water is present in crystal lattice and the excess water molecule is present in surface of the Tafamidis meglumine crystal. […] The hydrate form of 6-carboxy-2-(3,5-dichlorophenyl)-benzoxazole meglumine salt of Formula-IA having moisture content about 6.64% and moisture content about 15% are resulting the same PXRD diffractogram. This confirms the water molecules up to moisture content about 6% is present in crystal lattice and the excess water is present in surface of the crystal. In an another embodiment, the present disclosure, the hydrate form of 6-carboxy-2-(3,5-dichlorophenyl)-benzoxazole meglumine having DSC as depicted in FIG. 1 and having TGA as depicted in FIG. 2.

O=C(O)c1ccc2nc(-c3cc(Cl)cc(Cl)c3)oc2c1 [6-carboxy-2-(3,5-dichlorophenyl)-benzoxazole meglumine]
water content after drying: not considerably reduced
